Here are results for one substance from PMC12175907 (Science Advances, 2025).

In one data set the test system is DIO wild-type mice. Kind of data set: body composition (ECHO MRI), DIO wild-type mice. It counts as in vivo, C57BL/6 mouse. Particulars: 16 days daily sc, GIP-085 300 nmol/kg, semaglutide 3 nmol/kg, mean ± SEM, n=5-6 per group. On the procedure: (§1) C57BL/6 wild-type (n = 23), GLP-1R KO (n = 24), and GIPR KO mice (n = 24) received daily subcutaneous administration of GIP-085 (300 nmol/kg), semaglutide (3 nmol/kg), GIP-085/semaglutide combo, or vehicle for 16 days. Food intake and body weight were manually measured daily. The average body weight at the start of the experiment was 43.7 ± 0.4 g for the wild-type group, 39.0 ± 0.6 g for the GLP-1R KO group, and 36.5 ± 0.4 g for the GIPR KO group. Body composition of mice was determined using quantitative nuclear magnetic resonance analysis (ECHO MRI, 3-1 Composition Analyzer; Echo Medical Systems). At the end of the experiment, the animals were euthanized by CO2.

In another data set the test system is GLP-1R KO DIO mice. The data set can be described thus: body composition (ECHO MRI), GLP-1R KO DIO mice. Particulars: n=6 per group. It counts as in vivo, mouse. On the procedure:
as §1

The test system of another data set is DIO GIPR KO mice. Kind of data set: body composition (ECHO MRI), DIO GIPR KO mice. It counts as in vivo, mouse. Particulars: 16 days daily sc, GIP-085 300 nmol/kg, semaglutide 3 nmol/kg, mean ± SEM, n=6 per group. How it is done: as §1
Another data set concerns rats. Kind of data set: food and kaolin consumption and body weight in rats (semaglutide, tirzepatide). It counts as in vivo, Sprague-Dawley rat. The text has this:
Adult male Sprague-Dawley rats (Charles River) weighing ~250 to 270 g (n = 45) at arrival were housed under a 12-hour/12-hour light/dark cycle in a temperature-controlled and humidity-controlled vivarium. Rats were individually housed in hanging wire-bottom cage with ad libitum access to chow diet (Purina Lab Diet 5001) or, when noted, to high-fat/high-sugar diet (60% fat diet, 12492, Research Diets) and tap water and had ad libitum access to kaolin pellets (Research Diets, K50001). Rats were exposed to kaolin for at least 5 days prior to measuring kaolin consumption in pica testing. Kaolin intake and food consumption were measured simultaneously as the presence of kaolin in the cage, and its subsequent ingestion, has usually negligible effects on the hypophagic and body weight–lowering effects of the treatments.
GIPFA-085 (GIP-085), tirzepatide, and GLP-140 were designed and produced by Eli Lilly and Company. GIP-085, GLP-140, and semaglutide (Cayman Chemical) were dissolved in 40 mM tris-HCl buffer (pH 8) and 0.02% Tween 80. For the study in mice, all drugs were injected subcutaneously at a volume of 5 ml/kg of body weight. In rats, all drugs were injected intraperitoneally, at a volume of 1 ml/kg of body weight, except when noted. In shrews, all drugs were injected intraperitoneally at a volume of 10 ml/kg of body weight.
In two separate cohorts of rats (n = 10 per group, body weight ~ 460 ± 9 g), food consumption, kaolin intake, and body weight were measured after an intraperitoneal administration of vehicle, semaglutide (10 and 100 nmol/kg), or tirzepatide (10 and 100 nmol/kg), respectively. Food and kaolin intake were measured at 3, 6, 24, and 48 hours postinjection, and body weight was measured at 0, 24, and 48 hours. For each drug, a within-subject paradigm was used, with each round of injections separated by 7 days.

Data set [1] has as its system shrews. The data set can be described thus: IPGTT, semaglutide, shrews. It counts as in vivo, Suncus murinus. The settings on record: 10, 100 and 500 nmol/kg ip, 30 min before glucose 2 g/kg ip, 20 min post-glucose, n = 8 per group. From the text: (§2) Adult male shrews (S. murinus) weighing ~50 to 80 g (n = 84 total) were bred and maintained in the De Jonghe Lab (University of Pennsylvania). These animals were offspring from a colony previously maintained at the University of Pittsburgh Cancer Institute (C. Horn); a Taiwanese strain was derived from stock originally supplied by the Chinese University of Hong Kong. Shrews were singly housed in plastic cages (37.3 cm by 23.4 cm by 14 cm, Innovive) under a 12-hour/12-hour light/dark cycle in a temperature-controlled and humidity-controlled environment. Animal were fed ad libitum with a mixture of feline (75%, Laboratory Feline Diet 5003, Lab Diet) and mink food (25%, High Density Ferret Diet 5LI4, Lab Diet) and had ad libitum access to tap water except where noted.
The protocol for performing an IPGTT in shrews (n = 16) was previously described ([27]). Briefly, each shrews received intraperitoneal injection of semaglutide (10, 100, and 500 nmol/kg) or vehicle (10 ml/kg body weight) followed 30 min later by a glucose bolus injection [2 g/kg, intraperitoneally (ip)]. Blood glucose readings were taken at −30, 0, 20, 40, 60, and 120 min post-glucose administration. This study was conducted using a partial within-subject design, with each animal receiving two treatments separated by a 7-day interval.

The test system of data set [2] is shrews. The data set can be described thus: food intake and body weight, semaglutide dose-response, shrews. It counts as in vivo, Suncus murinus. The settings on record: 10, 50, 100 and 500 nmol/kg ip, n = 8 per group (legend).
Excerpt: as §2
We evaluated the effects on food intake and body weight of different doses of semaglutide. Food was removed 2 hours prior to dark onset. Shortly before dark onset, shrews (n = 9, ~59 ± 2 g) received intraperitoneal injection of semaglutide (10, 50, 100, and 500 nmol/kg) or vehicle. Shrews had ad libitum access to powdered food through a circular (3 cm in diameter) hole in the cage. Food intake was evaluated using our custom-made “feedometers,” consisting of a standard plexiglass rodent housing cage (29 cm by 19 cm by 12.7 cm) with mounted food hoppers resting on a plexiglass cup (to account for spillage). Food intake was manually measured at 6, 24, 48, and 72 hours postinjection. Body weight was taken at 0, 24, 48, and 72 hours. Treatments occurred in a within-subject, counterbalanced design and were 7 days apart.

Data set [3] concerns shrews. The data set can be described thus: food intake and body weight, semaglutide, GIP-085 and combo, shrews. It counts as in vivo, Suncus murinus. The settings on record: semaglutide alone, 500 nmol/kg ip; n = 8.
Excerpt: as §2
First, we compared the effects of semaglutide (500 nmol/kg), GIP-085 (300 nmol/kg), GIP-085/semaglutide, or vehicle on food intake and body weight in the same animals (n = 8, ~54 ± 2 g) using in a within-subject, counterbalanced design. This experiment was conducted as described above. Each treatment was 7 days apart.

Setting [4] is: 100 nmol/kg ip, n = 10 to 20 per group.
Setting [5] is: 10 and 100 nmol/kg ip, n = 10 per group, vs vehicle.

Consider semaglutide, for which the “total fat mass at the end of the experiment” value with DIO wild-type mice (Veh: 17.9±0.5g) came out at 12.2 ± 0.8 g; in the data set on GLP-1R KO DIO mice (16 days daily sc, GIP-085 300 nmol/kg, semaglutide 3 nmol/kg, mean ± SEM, Veh: 17.3±0.8g), 15.5 ± 0.9 g; with DIO GIPR KO mice (Veh: 14.2±0.6g), 8.1 ± 0.6 g. Further, the “total lean mass at the end of the experiment” value was determined as 24.6 ± 0.7 g with DIO wild-type mice (Veh: 24.8±0.6g); 23.9 ± 0.7 g with GLP-1R KO DIO mice (16 days daily sc, GIP-085 300 nmol/kg, semaglutide 3 nmol/kg, mean ± SEM, Veh: 24.1±0.6g); 20.9 ± 0.3 g in the data set on DIO GIPR KO mice (Veh: 22.3±0.5g). Also, in the data set on GLP-1R KO DIO mice (semaglutide 3 nmol/kg and dual semaglutide/GIP-085, 16 days), the body composition changes result is “No changes”. For the same substance, the kaolin intake entry in the data set with rats (100 nmol/kg ip, n = 10 per group, vs vehicle) is “causes significant malaise (i.e., kaolin intake)”. For the same substance, the “hypophagic responses, semaglutide vs tirzepatide” value in the data set on rats (setting [4]) is “comparable hypophagic responses”. For the same substance, the “kaolin consumption, semaglutide vs tirzepatide” value in the data set with rats (setting [4]) was “significantly higher than that caused by tirzepatide”; in the data set with rats (100 nmol/kg ip, n = 10 to 20 per group, listed as Semaglutide) it was “induces higher kaolin consumption than tirzepatide treatment”. Moreover, the body weight entry is on record as “causes body weight loss in a dose-dependent manner” in the data set with rats (setting [5]) and “body weight loss” in the data set with shrews [3]. Further, the food intake result with rats (setting [5]) is given as “dose-dependently suppresses food intake”; in the data set on shrews [3], “induced anorexia”. Further, the entries for the “blood glucose levels following glucose” value with shrews [1] and in the data set with shrews [1] (listed as Semaglutide) were “significantly reduced glucose levels in a dose-dependent manner” and “dose-dependently suppresses blood glucose levels”, respectively. The body weight loss result in the data set with shrews [2] was “significant body weight loss up to 72 hours after the highest dose tested”; in the data set with shrews [2] (listed as Semaglutide), “dose-dependently induces body weight loss”. Also, the “food intake (anorexia)” value with shrews [2] is “causes anorexia in a dose-dependent manner”.
